Reference: PMC10864483, “Iron uptake pathway of Escherichia coli as an entry route for peptide nucleic acids conjugated with a siderophore mimic” (Frontiers in Microbiology, 2024)
Where a SMILES comes first, the peptide text is derived from it. [ ]: non-standard residue; d: D form. Orn(N5-OH,N5-Ac) = CC(=O)N(O)CCC[C@H](N)C(=O)O

Assay: CD spectroscopy of siderophore-iron(III) complexes
Type: physicochemical
Conditions: for Optimal Fe^3+ complex configuration: CD, phosphate buffer pH 7.0, optical isomer Λ or Δ
Source text: To elucidate the configuration of the siderophore-iron(III) complexes, we used circular dichroism (CD) spectroscopy where the minimum and maximum with Cotton effect are expected in the range of 350–490 nm ([Winkelmann, 1991]; [Matsumoto et al., 2001]). For the Λ configuration, the minimum band in the CD spectrum should be present before the maximum. Since the Δ configuration is a mirror image of the Λ configuration, the maximum band appears first ([Winkelmann, 1991]). In the presence of the Fe^3+ salt, the natural siderophores and SL solution changed from colorless to yellow after several minutes. This indicates the presence of the siderophore-ferric iron complex and further confirms the metal-binding properties of these compounds ([Winkelmann, 1991]). Based on this observation, during the CD experiments, for every siderophore, we adjusted the incubation time at the optimal concentration, ranging from 40 to 90 min (see Supplementary Figure S1).
Figure 4 CD spectra of the natural (ferrichrome and feroxamine) and synthetic (SL and SC) siderophores with Fe^3+ salt solution in phosphate buffer (pH = 7.0).
CD spectra were recorded in aqueous buffer solution (100 mM phosphate buffer, pH 7.0), in the presence of 4 mM iron(III) salt solution (FeCl3 in the phosphate buffer). To obtain optimal recording conditions, siderophore concentrations were varied in the range 0.24–1.0 mM with an incubation time of 20–90 min (Supplementary Figure S1). In all CD experiments, the siderophore-Fe^3+ molar ratio of 1:1 was maintained. The spectra were collected using the Biokine MOS-450/AF-CD spectrometer equipped with the Xe lamp using a 0.1 cm CD cell. The acquisition duration time was 2 s with a resolution of 1 nm. The measurements were performed in 100 mM phosphate buffer, pH 7.0, room temperature, and wavelength range 300–500 nm. The presented CD spectra were smoothed with the Savitzky–Golay method using GraphPad and are the averages of three scans. Each CD experiment was conducted twice to confirm the repeatability of the spectra.

[1] = siderophore with Fe^3+ salt 1:1, 100 mM phosphate buffer pH 7.0, room temperature, 300-500 nm, average of three scans

Compound | Optimal Fe^3+ complex configuration | CD Wavelength Maximum [1] [nm] | CD Wavelength Minimum [1] [nm] | Ferric iron binding (CD and color change) (with Fe^3+ salt solution, phosphate buffer pH 7.0)
CC(=O)N([O-])CCCCCNC(=O)CCC(=O)N([O-])CCCCCNC(=O)CCC(=O)N([O-])CCCCCN.[Fe+3] [Feroxamine, feroxamine] | Λ and Δ | – | – | –
CC(=O)N([O-])CCC[C@@H]1NC(=O)CNC(=O)CNC(=O)CNC(=O)[C@H](CCCN([O-])C(C)=O)NC(=O)[C@H](CCCN([O-])C(C)=O)NC1=O.[Fe+3] [Ferrichrome] (cyclo(GGG[Orn(N5-OH,N5-Ac)][Orn(N5-OH,N5-Ac)][Orn(N5-OH,N5-Ac)])) | Λ | 456 | 360 | –
cyc(Asp-(Orn(Ac,OH))3-Gly-Lys(N3)) (head to tail) [SC, azido-Cyc(Asp-(Orn(Ac‚OH))3-GIy-Lys(N3)), cyclic hydroxamate siderophore mimic] | – | 487 | – | cannot bind ferric iron
